Reference: PubChem BioAssay (NCI)
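48-hour exposure; five concentrations; linearly interpolated endpoints. At the TGI there is no net growth.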

What was measured:
Assay in all cases: growth of human tumour cells (NCI), 48 h
MALME-3M melanoma = system: MALME-3M melanoma
A498 renal = system: A498 renal
SN12C renal = system: SN12C renal
MOLT-4 leukemia = system: MOLT-4 leukemia
MCF7 breast = system: MCF7 breast
EKVX NSCLC = system: EKVX NSCLC
UACC-257 melanoma = system: UACC-257 melanoma
BT-549 breast = system: BT-549 breast
SK-MEL-2 melanoma = system: SK-MEL-2 melanoma
A549 NSCLC = system: A549 NSCLC
HT29 colon = system: HT29 colon
NCI-H226 lung = system: NCI-H226 lung
MDA-MB-435 = system: MDA-MB-435
HCT-15 colon = system: HCT-15 colon
LOX IMVI melanoma = system: LOX IMVI melanoma

SMILES	TGI (MALME-3M melanoma) [µM]	TGI (A498 renal) [µM]	TGI (SN12C renal) [µM]	TGI (MOLT-4 leukemia) [µM]	TGI (MCF7 breast) [µM]	TGI (EKVX NSCLC) [µM]	TGI (UACC-257 melanoma) [µM]	TGI (BT-549 breast) [µM]	TGI (SK-MEL-2 melanoma) [µM]	TGI (A549 NSCLC) [µM]	TGI (HT29 colon) [µM]	TGI (NCI-H226 lung) [µM]	TGI (MDA-MB-435) [µM]	TGI (HCT-15 colon) [µM]	TGI (LOX IMVI melanoma) [µM]
C=C(C)C1=CCC[C@]2(C1)N=C(OC)[C@@H](C(C)C)N=C2OC	> 100	> 100	> 100	> 100	> 100	> 100	> 100	> 100	> 100	> 100	> 100	> 100	> 100	> 100	
O=C(CC(=O)N(C(=O)/C=C\c1ccccc1)c1ccc(Cl)cc1)N1N=C(c2ccccc2)C(N=Nc2cccc([N+](=O)[O-])c2)C1=O (stereo unspecified)	44.5	35.6	> 100	24.7	28.4	> 100		46.9		> 100	15.2	55.9	> 100	21.6	> 100
CC(C)OC(=O)c1ccc(NCc2cc(O)ccc2O)cc1Cl		> 75.9	32.2	8.97	> 45.2	25.5	37.1	1.57	> 55	> 76.7	> 93	> 49.9	23.3	3.95	> 100
NC(N)=N/N=C/c1c(-c2ccc(Cl)cc2)nc2sccn12	4.95	13.2	3.9	5.08	3.48	31.2	3.62	12	4.31	3.15	3.23	7.49	3.43	6.36	
C=CCNC1=C2C[C@@H](C)C[C@@H](OC)[C@H](OC(=O)CCN)[C@H](C)/C=C(\C)[C@@H](OC(N)=O)[C@H](OC)/C=C\C=C(/C)C(=O)NC(=CC1=O)C2=O	14.1	17.6	16.2	12.7	7.71	36.4	10.3	21.2	7.12	18.5	18.7		13.4	23.7	10.8
O=[N+]([O-])/C(C(Cl)=C(Cl)Cl)=C(\N1CCOCC1)n1nnc2ccccc21	35.1	37.8	42.9	72.3	56.1	35.2	50.7	33.1	47.7	42.7		58.7	41	29.6	
Cn1c2ccccc2n2c(N=O)c(-c3ccccc3)nc12	> 100	> 100	> 100	> 100	> 100	> 100	> 100	96.6	> 100	57.6	> 100		> 100	> 100	> 100
